This note sets out measurements from publication PMC4858680, “A platinum-based hybrid drug design approach to circumvent acquired resistance to molecular targeted tyrosine kinase inhibitors” (Scientific Reports, 2016).

Common to all, as to format: binding
One assay addresses T1, BMX (Homo sapiens, UniProt P51813).
T1 construct: purchased DiscoveRx KINOMEscan
T1 sequence (P51813 1-675): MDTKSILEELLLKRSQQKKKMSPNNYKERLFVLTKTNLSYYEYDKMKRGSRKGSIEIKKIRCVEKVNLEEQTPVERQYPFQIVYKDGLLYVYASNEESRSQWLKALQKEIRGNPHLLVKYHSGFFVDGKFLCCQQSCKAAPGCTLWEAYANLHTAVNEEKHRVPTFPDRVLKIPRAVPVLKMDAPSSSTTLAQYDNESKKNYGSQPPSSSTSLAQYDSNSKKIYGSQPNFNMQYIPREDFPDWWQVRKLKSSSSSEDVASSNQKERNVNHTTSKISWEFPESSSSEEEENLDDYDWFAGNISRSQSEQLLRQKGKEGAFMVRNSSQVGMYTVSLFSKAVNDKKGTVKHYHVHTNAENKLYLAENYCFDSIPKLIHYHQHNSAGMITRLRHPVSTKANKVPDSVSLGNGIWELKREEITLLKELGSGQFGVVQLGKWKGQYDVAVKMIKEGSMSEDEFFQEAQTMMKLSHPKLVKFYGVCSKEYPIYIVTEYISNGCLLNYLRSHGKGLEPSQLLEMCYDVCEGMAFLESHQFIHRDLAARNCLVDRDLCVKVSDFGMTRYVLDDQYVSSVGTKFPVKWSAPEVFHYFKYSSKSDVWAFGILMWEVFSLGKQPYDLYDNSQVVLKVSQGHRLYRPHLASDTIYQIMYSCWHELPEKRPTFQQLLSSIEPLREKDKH
The note with it: for remaining binding at 10 µM: read-out: Percent control.

The next assay has as its target T2, BRK (Homo sapiens, UniProt Q13882).
T2 construct: purchased DiscoveRx KINOMEscan
The note with it: for remaining binding at 10 µM: read-out: Percent control; for Percent control: BRK, 10 μM.

A further assay has as its target T3, EPHB3 (Homo sapiens, UniProt P54753).
T3 construct: purchased DiscoveRx KINOMEscan
T3 sequence (P54753 34-998): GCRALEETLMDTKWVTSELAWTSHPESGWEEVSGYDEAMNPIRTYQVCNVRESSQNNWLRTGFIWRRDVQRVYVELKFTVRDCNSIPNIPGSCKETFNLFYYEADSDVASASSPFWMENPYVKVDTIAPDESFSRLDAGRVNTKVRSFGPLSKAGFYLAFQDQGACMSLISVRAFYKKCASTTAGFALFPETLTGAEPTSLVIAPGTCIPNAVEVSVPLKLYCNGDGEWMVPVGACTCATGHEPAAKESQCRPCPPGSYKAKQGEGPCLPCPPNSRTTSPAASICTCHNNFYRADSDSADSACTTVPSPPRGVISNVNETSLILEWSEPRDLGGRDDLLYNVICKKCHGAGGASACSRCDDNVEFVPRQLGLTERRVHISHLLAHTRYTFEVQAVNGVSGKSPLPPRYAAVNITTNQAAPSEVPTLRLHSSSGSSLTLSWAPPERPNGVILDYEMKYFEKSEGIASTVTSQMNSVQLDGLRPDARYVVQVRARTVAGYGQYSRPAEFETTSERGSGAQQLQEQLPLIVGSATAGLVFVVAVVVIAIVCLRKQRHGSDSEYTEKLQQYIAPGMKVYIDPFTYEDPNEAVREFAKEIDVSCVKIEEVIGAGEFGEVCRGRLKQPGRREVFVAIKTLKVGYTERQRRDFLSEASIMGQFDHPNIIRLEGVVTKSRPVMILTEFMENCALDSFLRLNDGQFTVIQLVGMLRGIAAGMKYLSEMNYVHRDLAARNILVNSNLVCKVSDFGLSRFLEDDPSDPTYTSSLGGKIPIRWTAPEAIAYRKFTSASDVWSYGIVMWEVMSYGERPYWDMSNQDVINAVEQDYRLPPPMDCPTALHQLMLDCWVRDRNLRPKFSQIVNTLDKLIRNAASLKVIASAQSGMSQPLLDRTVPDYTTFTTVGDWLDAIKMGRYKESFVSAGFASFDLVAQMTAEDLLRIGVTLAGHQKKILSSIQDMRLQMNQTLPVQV
The note with it: for remaining binding at 10 µM: read-out: Percent control.

The target in a further assay is T4, ERBB3 (Homo sapiens, UniProt P21860).
T4 construct: purchased DiscoveRx KINOMEscan
The conditions noted are these: for remaining binding at 10 µM: read-out: Percent control; for Percent control: ERBB3, 10 μM.

In a further assay the target is T5, FAK (Homo sapiens, UniProt Q05397).
T5 construct: purchased DiscoveRx KINOMEscan
The conditions noted are these: for remaining binding at 10 µM: read-out: Percent control.

The target in another assay is T6, MUSK (Homo sapiens, UniProt O15146).
T6 construct: purchased DiscoveRx KINOMEscan
T6 sequence (O15146 24-869): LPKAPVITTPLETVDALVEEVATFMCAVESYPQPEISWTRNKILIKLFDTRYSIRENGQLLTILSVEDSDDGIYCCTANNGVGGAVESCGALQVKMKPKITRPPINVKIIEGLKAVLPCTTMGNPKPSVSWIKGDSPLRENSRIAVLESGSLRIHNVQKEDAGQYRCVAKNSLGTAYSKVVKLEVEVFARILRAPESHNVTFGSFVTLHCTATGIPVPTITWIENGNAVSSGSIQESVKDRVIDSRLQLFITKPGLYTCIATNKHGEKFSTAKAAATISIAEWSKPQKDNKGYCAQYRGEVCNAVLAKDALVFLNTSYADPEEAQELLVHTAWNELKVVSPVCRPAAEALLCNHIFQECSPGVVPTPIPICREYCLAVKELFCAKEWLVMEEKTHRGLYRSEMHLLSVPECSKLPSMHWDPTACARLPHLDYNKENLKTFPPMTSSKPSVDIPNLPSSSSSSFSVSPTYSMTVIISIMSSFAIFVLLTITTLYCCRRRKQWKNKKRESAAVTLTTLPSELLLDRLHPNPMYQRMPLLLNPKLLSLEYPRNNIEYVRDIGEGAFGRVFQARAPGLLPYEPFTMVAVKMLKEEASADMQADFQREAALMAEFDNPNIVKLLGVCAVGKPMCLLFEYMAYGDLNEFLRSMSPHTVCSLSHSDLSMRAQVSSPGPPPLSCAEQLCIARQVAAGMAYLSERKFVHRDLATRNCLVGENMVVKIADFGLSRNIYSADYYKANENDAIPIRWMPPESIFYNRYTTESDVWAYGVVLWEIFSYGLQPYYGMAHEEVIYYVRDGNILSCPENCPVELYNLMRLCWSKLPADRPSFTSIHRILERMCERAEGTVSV
The conditions noted are these: for remaining binding at 10 µM: read-out: Percent control.

Another assay has as its target T7, PYK2 (Homo sapiens, UniProt Q14289).
T7 construct: purchased DiscoveRx KINOMEscan
The note with it: for remaining binding at 10 µM: read-out: Percent control.

The next assay has as its target T8, TNK2 (Homo sapiens, UniProt Q07912).
T8 construct: purchased DiscoveRx (KINOMEscan service)
The note with it: for remaining binding at 10 µM: read-out: Percent control.

A further assay deals with T9, TRKA (Homo sapiens, UniProt P04629).
T9 construct: purchased DiscoveRx (KINOMEscan service)
The note with it: for remaining binding at 10 µM: read-out: Percent control.

Like-named read-outs stand apart in the source and are kept apart here.

T7 sequence (Q14289 whole entry): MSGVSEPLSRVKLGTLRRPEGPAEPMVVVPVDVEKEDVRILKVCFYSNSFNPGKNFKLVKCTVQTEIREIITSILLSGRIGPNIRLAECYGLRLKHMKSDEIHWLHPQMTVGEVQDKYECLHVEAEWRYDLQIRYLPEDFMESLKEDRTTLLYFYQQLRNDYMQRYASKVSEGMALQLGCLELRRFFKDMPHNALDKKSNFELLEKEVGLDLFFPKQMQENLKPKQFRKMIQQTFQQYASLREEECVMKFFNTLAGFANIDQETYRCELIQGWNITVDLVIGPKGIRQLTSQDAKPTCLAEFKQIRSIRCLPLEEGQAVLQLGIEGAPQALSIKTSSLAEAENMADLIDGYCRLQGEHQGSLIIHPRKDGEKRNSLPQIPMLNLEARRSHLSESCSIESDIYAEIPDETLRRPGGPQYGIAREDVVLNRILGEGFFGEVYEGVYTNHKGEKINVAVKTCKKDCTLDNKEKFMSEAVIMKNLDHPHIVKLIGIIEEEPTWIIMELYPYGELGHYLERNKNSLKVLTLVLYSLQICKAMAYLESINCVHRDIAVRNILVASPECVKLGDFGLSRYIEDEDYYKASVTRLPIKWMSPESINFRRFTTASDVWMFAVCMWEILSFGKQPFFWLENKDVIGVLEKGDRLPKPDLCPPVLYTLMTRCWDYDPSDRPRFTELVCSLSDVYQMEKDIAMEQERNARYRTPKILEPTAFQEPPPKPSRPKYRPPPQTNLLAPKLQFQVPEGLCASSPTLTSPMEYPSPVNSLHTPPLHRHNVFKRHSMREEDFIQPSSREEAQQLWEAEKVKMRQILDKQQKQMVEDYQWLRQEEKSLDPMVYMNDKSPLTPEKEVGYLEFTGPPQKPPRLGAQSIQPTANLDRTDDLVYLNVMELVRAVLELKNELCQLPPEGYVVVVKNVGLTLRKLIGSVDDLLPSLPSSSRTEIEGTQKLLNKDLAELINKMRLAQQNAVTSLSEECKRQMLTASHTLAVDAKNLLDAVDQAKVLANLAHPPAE
T2 sequence (Q13882 whole entry): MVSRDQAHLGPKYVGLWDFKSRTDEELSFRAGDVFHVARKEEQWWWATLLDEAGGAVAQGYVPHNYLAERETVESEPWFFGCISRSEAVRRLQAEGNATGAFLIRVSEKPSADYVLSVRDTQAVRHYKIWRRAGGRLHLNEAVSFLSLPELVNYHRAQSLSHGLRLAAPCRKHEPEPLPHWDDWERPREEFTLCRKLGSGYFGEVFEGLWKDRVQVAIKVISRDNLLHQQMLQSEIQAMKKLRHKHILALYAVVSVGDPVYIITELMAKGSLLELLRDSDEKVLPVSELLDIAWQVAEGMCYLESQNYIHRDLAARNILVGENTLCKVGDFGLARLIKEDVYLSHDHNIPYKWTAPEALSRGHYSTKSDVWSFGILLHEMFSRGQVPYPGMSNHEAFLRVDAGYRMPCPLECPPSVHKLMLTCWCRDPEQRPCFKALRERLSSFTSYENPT
T4 sequence (P21860 20-1342): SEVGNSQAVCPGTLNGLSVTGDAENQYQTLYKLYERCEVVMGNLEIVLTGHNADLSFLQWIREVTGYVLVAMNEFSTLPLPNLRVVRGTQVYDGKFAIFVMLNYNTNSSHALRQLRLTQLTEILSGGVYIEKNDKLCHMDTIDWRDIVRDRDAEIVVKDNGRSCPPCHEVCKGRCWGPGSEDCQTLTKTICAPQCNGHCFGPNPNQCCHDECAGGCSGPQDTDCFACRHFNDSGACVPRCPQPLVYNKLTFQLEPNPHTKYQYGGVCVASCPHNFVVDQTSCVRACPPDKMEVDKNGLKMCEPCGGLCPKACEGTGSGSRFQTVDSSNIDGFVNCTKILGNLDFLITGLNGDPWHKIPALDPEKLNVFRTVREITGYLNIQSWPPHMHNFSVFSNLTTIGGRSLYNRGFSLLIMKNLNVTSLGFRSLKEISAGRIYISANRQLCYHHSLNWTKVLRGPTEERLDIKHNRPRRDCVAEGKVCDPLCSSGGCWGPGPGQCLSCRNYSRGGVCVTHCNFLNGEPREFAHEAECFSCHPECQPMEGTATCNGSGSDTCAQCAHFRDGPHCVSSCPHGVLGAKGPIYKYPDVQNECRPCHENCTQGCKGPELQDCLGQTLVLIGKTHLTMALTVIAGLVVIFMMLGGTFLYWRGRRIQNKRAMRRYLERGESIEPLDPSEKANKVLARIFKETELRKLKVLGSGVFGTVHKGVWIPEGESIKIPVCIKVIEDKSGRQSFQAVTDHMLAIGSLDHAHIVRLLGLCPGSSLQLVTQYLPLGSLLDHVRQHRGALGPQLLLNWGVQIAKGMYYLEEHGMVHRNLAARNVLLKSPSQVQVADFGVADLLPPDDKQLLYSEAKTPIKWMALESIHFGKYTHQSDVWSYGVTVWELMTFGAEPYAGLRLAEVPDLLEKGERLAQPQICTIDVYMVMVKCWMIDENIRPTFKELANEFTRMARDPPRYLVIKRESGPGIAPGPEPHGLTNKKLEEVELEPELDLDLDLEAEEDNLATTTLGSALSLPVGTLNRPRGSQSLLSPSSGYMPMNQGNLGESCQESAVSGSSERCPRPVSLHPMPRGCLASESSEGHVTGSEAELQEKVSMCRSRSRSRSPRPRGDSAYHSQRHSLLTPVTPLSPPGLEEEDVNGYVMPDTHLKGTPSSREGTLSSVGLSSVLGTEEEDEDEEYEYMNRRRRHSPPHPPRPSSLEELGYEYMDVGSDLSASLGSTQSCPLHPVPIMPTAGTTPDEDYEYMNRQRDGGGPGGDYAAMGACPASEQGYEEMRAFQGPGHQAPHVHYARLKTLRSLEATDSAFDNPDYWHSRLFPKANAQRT
T9 sequence (P04629 33-796): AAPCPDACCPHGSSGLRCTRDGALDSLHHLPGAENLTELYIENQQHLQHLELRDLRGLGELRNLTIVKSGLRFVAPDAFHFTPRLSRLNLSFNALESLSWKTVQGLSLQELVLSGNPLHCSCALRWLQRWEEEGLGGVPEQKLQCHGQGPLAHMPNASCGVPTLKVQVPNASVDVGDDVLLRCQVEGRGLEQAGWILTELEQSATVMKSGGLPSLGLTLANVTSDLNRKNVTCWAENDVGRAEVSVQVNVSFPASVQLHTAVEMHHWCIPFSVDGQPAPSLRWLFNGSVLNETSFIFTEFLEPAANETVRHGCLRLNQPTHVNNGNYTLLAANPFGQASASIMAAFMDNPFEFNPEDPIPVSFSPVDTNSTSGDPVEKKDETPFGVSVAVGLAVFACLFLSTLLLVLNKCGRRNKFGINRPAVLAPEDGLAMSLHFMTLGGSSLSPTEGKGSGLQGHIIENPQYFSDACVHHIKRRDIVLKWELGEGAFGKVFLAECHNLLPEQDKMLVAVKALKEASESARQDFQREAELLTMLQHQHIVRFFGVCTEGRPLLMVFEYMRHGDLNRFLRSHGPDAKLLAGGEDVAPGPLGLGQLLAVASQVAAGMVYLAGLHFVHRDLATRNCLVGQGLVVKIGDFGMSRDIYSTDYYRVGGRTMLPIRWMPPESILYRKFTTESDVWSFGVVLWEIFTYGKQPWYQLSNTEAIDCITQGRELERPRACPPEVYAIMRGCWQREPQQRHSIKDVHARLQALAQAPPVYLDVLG
T8 sequence (Q07912 whole entry): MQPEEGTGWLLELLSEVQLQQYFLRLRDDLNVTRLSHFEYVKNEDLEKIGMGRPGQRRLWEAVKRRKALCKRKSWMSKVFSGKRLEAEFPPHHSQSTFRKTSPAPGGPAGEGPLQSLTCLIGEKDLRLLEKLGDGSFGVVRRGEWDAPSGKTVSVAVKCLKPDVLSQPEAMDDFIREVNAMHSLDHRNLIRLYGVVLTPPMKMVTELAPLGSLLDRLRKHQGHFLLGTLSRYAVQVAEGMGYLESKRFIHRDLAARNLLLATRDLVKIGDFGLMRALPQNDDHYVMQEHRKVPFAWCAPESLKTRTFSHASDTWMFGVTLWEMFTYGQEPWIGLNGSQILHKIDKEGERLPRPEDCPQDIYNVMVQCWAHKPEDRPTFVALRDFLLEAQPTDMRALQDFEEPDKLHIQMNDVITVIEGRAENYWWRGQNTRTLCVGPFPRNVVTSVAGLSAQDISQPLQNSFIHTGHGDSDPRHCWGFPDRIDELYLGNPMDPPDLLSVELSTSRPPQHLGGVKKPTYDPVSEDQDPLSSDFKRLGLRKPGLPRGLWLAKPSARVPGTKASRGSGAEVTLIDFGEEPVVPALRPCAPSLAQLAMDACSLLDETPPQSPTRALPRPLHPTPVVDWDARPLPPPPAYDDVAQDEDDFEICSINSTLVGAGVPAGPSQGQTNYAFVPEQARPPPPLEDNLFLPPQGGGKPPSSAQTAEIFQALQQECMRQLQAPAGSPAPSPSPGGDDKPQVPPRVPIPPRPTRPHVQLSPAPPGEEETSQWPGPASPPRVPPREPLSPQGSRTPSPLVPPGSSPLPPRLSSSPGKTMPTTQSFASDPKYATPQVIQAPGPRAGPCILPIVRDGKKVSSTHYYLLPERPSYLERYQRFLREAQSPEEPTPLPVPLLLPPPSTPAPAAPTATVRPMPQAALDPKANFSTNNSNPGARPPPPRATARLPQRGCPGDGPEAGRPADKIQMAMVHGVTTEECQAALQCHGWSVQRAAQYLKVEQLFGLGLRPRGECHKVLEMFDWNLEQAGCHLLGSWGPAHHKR

`C#Cc1cccc(Nc2ncnc3cc(OCCOC)c(OCCOC)cc23)c1` [Erlotinib]: the remaining binding at 10 µM at BMX worked out at 100%; on BRK it was 100%; on EPHB3, 100%; on ERBB3 it was 9.9%; at FAK it was 100%; on MUSK, 100%. The remaining binding at 10 µM amounted to 100% at PYK2; 100% at TNK2 (TNK2, 10 μM); 100% on TRKA.

Turning to `Cc1ccc(NC(=O)c2ccc(CN3CCN(C)CC3)cc2)cc1Nc1nccc(-c2cccnc2)[n+]1[Pt-2]1([Cl])[NH2+]C2CCCCC2[NH2+]1` (stereo not drawn) [1b, oxaliplatin-imatinib], the Percent control on BMX (BMX, 10 μM) was 98%; on BRK, 93%; on EPHB3 (EPHB3, 10 μM), 87%; on ERBB3, 100%; on FAK (FAK, 10 μM) it was 90%; at MUSK (MUSK, 10 μM), 100%. For the same molecule, the Percent control at PYK2 (PYK2, 10 μM) is 92%; at TNK2 (TNK2, 10 μM), 100%; on TRKA (TRKA, 10 μM), 98%.

For `COc1cc2c(Nc3ccc(Br)cc3F)ncnc2cc1OCC1CCN(C)CC1` [Vandetanib, reference compound], the remaining binding at 10 µM came out at 100% at BMX (BMX, 10 μM); 1.6% at BRK; 100% at EPHB3 (EPHB3, 10 μM); 1.6% on ERBB3; 100% at FAK (FAK, 10 μM); 100% on MUSK (MUSK, 10 μM). The remaining binding at 10 µM is 100% at PYK2 (PYK2, 10 μM); 100% at TNK2 (TNK2, 10 μM); 100% at TRKA (TRKA, 10 μM).

On to `COc1cc2c(Nc3ccc(Br)cc3F)[n+]([Pt-2]3([Cl])[NH2+]C4CCCCC4[NH2+]3)cnc2cc1OCC1CCN(C)CC1` (stereo not drawn) [3b, oxaliplatin-vandetanib], for which the Percent control on BMX (BMX, 10 μM) was determined as 92%; on BRK, 27%; at EPHB3 (EPHB3, 10 μM), 100%; on ERBB3, 4.1%; on FAK (FAK, 10 μM), 86%; at MUSK (MUSK, 10 μM), 95%. Also, the Percent control on PYK2 (PYK2, 10 μM) amounted to 80%; at TNK2 (TNK2, 10 μM), 100%; on TRKA (TRKA, 10 μM) it was 92%.

With `C#Cc1cccc(Nc2c3cc(OCCOC)c(OCCOC)cc3nc[n+]2[Pt@SP2-2]([NH3+])([NH3+])[Cl])c1` [2a, cisplatin-erlotinib], the Percent control on BMX (BMX, 10 μM) is reported as 100%; on BRK, 89%; at EPHB3 (EPHB3, 10 μM) it was 88%; on ERBB3, 100%; at FAK (FAK, 10 μM) it was 94%; at MUSK (MUSK, 10 μM), 97%. Moreover, the Percent control at PYK2 (PYK2, 10 μM) amounted to 90%; at TNK2, 100; at TRKA (TRKA, 10 μM), 94%.

In the case of `Cc1ccc(NC(=O)c2ccc(CN3CCN(C)CC3)cc2)cc1Nc1nccc(-c2cccnc2)n1` [Imatinib, reference compound], the Percent control turned out to be 100% on BMX (BMX, 10 μM); 100% at BRK; 100% at EPHB3 (EPHB3, 10 μM); 100% on ERBB3; 100% at FAK (FAK, 10 μM); 100% at MUSK (MUSK, 10 μM). Besides, the Percent control on PYK2 (PYK2, 10 μM) is 100%; on TNK2 (TNK2, 10 μM) it was 100%; on TRKA (TRKA, 10 μM) it was 100%.
